≈ marks a conversion by molar mass, not a printed value. Where “and” joins values, the source holds several entries; their conditions need not be identical. Equal values may be shown once.
What was measured:
[1] = system: HeLa (cervical cancer); experiment: Cytotoxicity test with sulphorhodamine B, HeLa line; conditions: for IC50: Homo sapiens, 72 h, read-out: Cytotoxic activity IC50 HeLa (cervical cancer), 72 hours incubation, average of three independent determinations
Description: (§1) Cytotoxicity tests were carried out using a standard procedure with sulphorhodamine B. They involved incubation of the cancer cell lines in the logarithmic growth phase for 72 hours with the compound tested and, subsequently, spectrophotometric determination of the degree of cell growth inhibition using adsorption of a dye (sulphorhodamine B) which binds cellular proteins.
(§2) Cells of the cell line tested in the logarithmic growth phase were seeded onto 24-well plates in a quantity of 20,000 cells/2 mL of the growth medium per well and, subsequently, incubated in an incubator at 37° C., in the 5% CO2 atmosphere for 24 hours.
(§3) Solutions of the test compounds were prepared in DMSO in the following concentration range: 0.05; 0.1; 0.5; 1; 5; 10; 50; 100; 500 μM.
(§4) The cells of the lines tested were treated with the solutions of the test compounds in a laminar-flow chamber which ensured sterile working conditions according to the following procedure: the first three wells were used as a blank: they contained 20 μL of DMSO only; successive solutions of the test compound were added to subsequent wells (20 μL), starting with the lowest concentration (three wells for each concentration level). Subsequently, the plates were placed in an incubator for 72 hours.
(§5) After the end of incubation, the adhered cells were fixed by adding 500 μL of cold (4° C. 50% trichloroacetic acid (TCA) and incubated at 4° C. for 1 hour. Subsequently, each well was rinsed with sterile water and dried. The operation was repeated five times. The fixed cells were stained for 30 minutes by adding 500 μL of 0.4% of a dye solution (sulphorhodamine B) dissolved in 1% acetic acid. Any unbound dye was removed by decanting it from the plate, and the cells were washed 4 times with 1% acetic acid. Subsequently, the plates were dried in air for approx. 5 minutes. Any unbound dye was dissolved by adding 1500 μL of 10 mM Tris-base buffer (trishydroxymethylaminomethane) to each well and shaken using an orbital shaker for 5 minutes. Subsequently, 200 μL of solution from each well was transferred to each of two wells on a new 96-well plate and absorption of the solutions was determined spectrophotometrically at a wavelength of 490-530 nm using a plate reader. Percentage inhibition of cell growth by the test compound was calculated assuming the absorption of the control solution as 100%.
(§6) Depending on the type of the cell line, the following growth media were used: • the MCF-7 line was grown in Dulbecco's Modified Eagle's Medium (DME) from Sigma (cat. no. D5796), • the HeLa and Hep-G2 lines were grown in PPMI-1640 Medium from Sigma (cat. no. R8758).

[2] = system: MCF-7 (breast cancer); experiment: Cytotoxicity test with sulphorhodamine B, MCF-7 line; conditions: for IC50: Homo sapiens, MCF7, 72 h, read-out: Cytotoxic activity IC50 MCF-7 line (breast cancer), 72 hours incubation, average of three independent determinations
Description: as §1, §2, §3, §4, §5, §6

[3] = system: L1210 cancer in mice induced by MLV retroviruses; conditions: literature (Colla et al. 1985); cited from earlier work
[4] = system: Hep-G2 (hepatic cancer); experiment: Cytotoxicity test with sulphorhodamine B, Hep-G2 line; format: cell-based; conditions: for IC50: Homo sapiens, HepG2, 72 hours incubation, average of three independent determinations, read-out: Cytotoxic activity IC50 Hep-G2 (hepatic cancer); for fold higher activity than AddFU: Hep-G2, ratio of IC50
Description: The values are average results of three independent determinations.

[5] = system: sarcoma 180; conditions: literature (Lin et al. 1983); cited from earlier work
[6] = system: HeLa (cervical cancer); conditions: for Cytotoxic activity IC50 HeLa (cervical cancer): human, 72 h
Description: as §1, §2, §3, §4, §5, §6

[7] = system: MCF-7 (breast cancer); conditions: for Cytotoxic activity IC50 MCF-7 line (breast cancer): human, 72 h
Description: as §1, §2, §3, §4, §5, §6

## O=c1[nH]c(=O)n([C@H]2C[C@H](O)[C@@H](CO)O2)cc1F [5-fluoro-2′-deoxyuridine, reference compound]
[1]
  IC50: 3.2 µg/mL and 13 µM
[2]
  IC50: 2.81 µg/mL and 11.4 µM

## [N-]=[N+]=N[C@H]1C[C@H](n2cc(F)c(=O)[nH]c2=O)O[C@@H]1CO [3′-azido-2′,3′-dideoxy-5-fluorouridine, reference compound]
[1]
  IC50: 3 µg/mL and 11.1 µM
[2]
  IC50: 2.2 µg/mL and 8.11 µM
[3]
  IC50 against L1210 cancer: 34 µg/mL (≈ 125 µM)
[4]
  IC50: 16 µg/mL and 59 µM
[5]
  activity against sarcoma 180 in vitro, in words: weak activity

## O=c1[nH]c(=O)n(C2CC(n3cc(C4CN5CCC4C[C@@H]5[C@@H](O)c4ccnc5ccccc45)nn3)C(CO)O2)cc1F (stereo partly drawn) [CN5FdU, 5-Fluoro-1-(5-hydroxymethyl-4-{4-[6-(hydroxy-quinolin-4-yl-methyl)-1-aza-bicyclo[2.2.2]oct-3-yl]-[1,2,3]triazol-1-yl}-tetrahydro-furan-2-yl)-1H-pyrimidine-2,4-dione]
[6]
  cytotoxic activity in words, cervical cancer cells (HeLa line): medium active
[1]
  IC50: 7.9 µg/mL and 14 µM
[2]
  IC50: 7 µg/mL and 12.4 µM

## C=CC1C[N@@]2CCC1C[C@@H]2[C@@H](OCc1cn(C2CC(n3cc(F)c(=O)[nH]c3=O)OC2CO)nn1)c1ccnc2ccc(OC)cc12 (stereo partly drawn) [PQD5FdU, 5-Fluoro-1-(5-hydroxymethyl-4-{4-[(6-methoxyquinolin-4-yl)-(5-vinyl-1-aza-bicyclo[2.2.2]oct-2-yl)-methoxymethyl]-[1,2,3]triazol-1-yl}-tetrahydrofuran-2-yl)-1H-pyrimidine-2,4-dione]
[7]
  cytotoxic activity in words, breast cancer cells: medium active
[1]
  IC50: 2.8 µg/mL and 4.42 µM
[2]
  IC50: 2.9 µg/mL and 4.58 µM
[4]
  fold higher activity than AddFU: more than twice as high
  IC50: 6 µg/mL and 9.47 µM

## C=CC1C[N@@]2CCC1C[C@@H]2C(OCc1cn(C2CC(n3cc(F)c(=O)[nH]c3=O)OC2CO)nn1)c1ccnc2ccccc12 (stereo partly drawn) [PCN5FdU, 5-Fluoro-1-(5-hydroxymethyl-4-{4-[quinolin-4-yl-(5-vinyl-1-aza-bicyclo[2.2.2]oct-2-yl)-methoxymethyl]-[1,2,3]triazol-1-yl}-tetrahydrofuran-2-yl)-1H-pyrimidine-2,4-dione]
[6]
  cytotoxic activity in words, cervical cancer cells (HeLa line): medium active
[1]
  IC50: 27.6 µg/mL and 45.7 µM
[2]
  IC50: 27.2 µg/mL and 45.1 µM

## C=CC1C[N@@]2CCC1C[C@H]2[C@H](OCc1cn(C2CC(n3cc(F)c(=O)[nH]c3=O)OC2CO)nn1)c1ccnc2ccccc12 (stereo partly drawn) [PCD5FdU, 5-Fluoro-1-(5-hydroxymethyl-4-{4-[quinolin-4-yl-(5-vinyl-1-aza-bicyclo[2.2.2]oct-2-yl)-methoxymethyl]-[1,2,3]triazol-1-yl}-tetrahydrofuran-2-yl)-1H-pyrimidine-2,4-dione]
[6]
  cytotoxic activity in words, cervical cancer cells (HeLa line): medium active
[1]
  IC50: 21.4 µg/mL and 35.5 µM
[2]
  IC50: 13 µg/mL and 21.5 µM

## COc1ccc2nccc([C@H](O)[C@H]3CC4CC[N@]3CC4c3cn(C4CC(n5cc(F)c(=O)[nH]c5=O)OC4CO)nn3)c2c1 (stereo partly drawn) [QD5FdU, 5-Fluoro-1-[4-(4-{6-[hydroxy-(6-methoxyquinolin-4-yl)-methyl]-1-aza-bicyclo[2.2.2]oct-3-yl}-[1,2,3]triazol-1-yl)-5-hydroxymethyl-tetrahydro-furan-2-yl]-1H-pyrimidine-2,4-dione]
[6]
  Cytotoxic activity IC50 HeLa (cervical cancer): 1.6 µg/mL
[7]
  Cytotoxic activity IC50 MCF-7 line (breast cancer): 0.98 µg/mL
[1]
  IC50: 1.6 µg/mL to 2.8 µg/mL and 2.7 µM
[2]
  IC50: 0.98 µg/mL to 1.5 µg/mL and 1.65 µM

## O=c1[nH]c(=O)n(C2CC(n3cc(C4CN5CCC4C[C@H]5[C@H](O)c4ccnc5ccccc45)nn3)C(CO)O2)cc1F (stereo partly drawn) [CD5FdU, 5-Fluoro-1-(5-hydroxymethyl-4-{4-[6-(hydroxy-quinolin-4-yl-methyl)-1-aza-bicyclo[2.2.2]oct-3-yl]-[1,2,3]triazol-1-yl}-tetrahydro-furan-2-yl)-1H-pyrimidine-2,4-dione]
[6]
  cytotoxic activity in words, cervical cancer cells (HeLa line): medium active
[1]
  IC50: 7 µg/mL and 12.4 µM
[2]
  IC50: 6.9 µg/mL and 12.2 µM

## C=CC1C[N@@]2CCC1C[C@H]2[C@H](OCc1cn(C2CC(n3cc(F)c(=O)[nH]c3=O)OC2CO)nn1)c1ccnc2ccc(OC)cc12 (stereo partly drawn) [PQN5FdU, 5-Fluoro-1-(5-hydroxymethyl-4-{4-[(6-methoxyquinolin-4-yl)-(5-vinyl-1-aza-bicyclo[2.2.2]oct-2-yl)-methoxymethyl]-[1,2,3]triazol-1-yl}-tetrahydrofuran-2-yl)-1H-pyrimidine-2,4-dione]
[6]
  Cytotoxic activity IC50 HeLa (cervical cancer): 2.0 µg/mL
[7]
  Cytotoxic activity IC50 MCF-7 line (breast cancer): 1.5 µg/mL
[1]
  IC50: 1.6 µg/mL to 2.8 µg/mL and 3.16 µM
[2]
  IC50: 0.98 µg/mL to 1.5 µg/mL and 2.37 µM
[4]
  fold higher activity than AddFU: more than twice as high
  IC50: 6.2 µg/mL and 9.78 µM

## COc1ccc2nccc(C(O)[C@@H]3CC4CCN3CC4c3cn(C4CC(n5cc(F)c(=O)[nH]c5=O)OC4CO)nn3)c2c1 (stereo partly drawn) [QN5FdU, 5-Fluoro-1-[4-(4-{6-[hydroxy-(6-methoxyquinolin-4-yl)-methyl]-1-aza-bicyclo[2.2.2]oct-3-yl}-[1,2,3]triazol-1-yl)-5-hydroxymethyl-tetrahydro-furan-2-yl]-1H-pyrimidine-2,4-dione]
[1]
  IC50: 0.16 µg/mL and 270 nM
[1]; ratio of IC50
  fold higher activity than 5FdU: more than 20 fold
  fold higher activity than AddFU: more than 18 fold
[2]
  IC50: 0.16 µg/mL and 270 nM
[2]; MCF-7, ratio of IC50
  fold higher activity than 5FdU: more than 17.5 fold
  fold higher activity than AddFU: more than 13 fold
[4]
  fold higher activity than AddFU: 4 fold
  IC50: 3.8 µg/mL and 6.4 µM
